Measurements as given in US8222031B2, “Three-dimensional skin model” (Fraunhofer-Gesellschaft zur Foerderung der angewandten …, priority 2000, dated 2012).

What was measured:
Format in all cases: cell-based
[1] = system: three-dimensional human skin equivalent; test: EZ4U test: cell metabolism (cytotoxicity) of skin equivalents
Method: (§1) Substances samples were used equivalently for testing on the human skin equivalent. The objective was to study any irritating effect of the samples on the full skin model after 48 hours of incubation time via the EZ4U metabolism. The secretion of Il1α and PGE2 was supposed to be determined in the media supernatants after 24 hours and after 48 hours by ELISA. Different concentrations of SDS were also run as a reference substance. Finally, all tested skin equivalents were fixed, and the morphological structure was tested and evaluated with stained paraffin sections.
The skin equivalents each were prepared in a 6-well with 1 ml of medium (KBM without hEGF, without BPE, and with 1.8 mM CaCl2). The samples were incubated on the surface of the corresponding skin models according to the following schedule: […]
The EZ4U test was performed as followed: After 48 hours of incubation, the cell metabolism of the individual skin equivalents was determined photometrically using a vital stain (tetrazolium derivative). […] Turnover kinetics of the negative controls, positive controls, and the equivalents treated with the samples were recorded over a period of 2 hours at 450 nm (with a reference wavelength of 620 nm). […] Both Ec50 and Et50 were determined for SDS. Et50 was determined according to different exposure times from 1% SDS (3 sec, 30 sec, 60 sec, 5 min, 15 min). […]

[2] = system: three-dimensional human skin equivalent; test: Il1α secretion in media supernatants of skin equivalents by ELISA
Method: as §1
(§2) The skin equivalents each were prepared in a 6-well with 1 ml of medium (KBM without hEGF, without BPE, and with 1.8 mM CaCl2). The samples were incubated on the surface of the corresponding skin models according to the following schedule:
(§3) Day 1: Application of 3 μl substance in the morning and in the afternoon.
Day 2: Media replacement and freezing of media supernatants for Il1α und PGE2 determination. […]
(§4) The Il1α and PGE2 content in the media supernatants was determined after 24 hours and 48 hours of incubation of the samples using commercially available ELISA test kits and following their instructions.
The induced secretion of cytokine Il1α was quantified by ELISA first after 24 hours and then after a subsequent, additional incubation for 24 hours with test substances in the media supernatants of the equivalents. […]

[3] = system: three-dimensional human skin equivalent; test: PGE2 synthesis in media supernatants of skin equivalents by ELISA
Method: as §1, §2, §3
Day 2: Media replacement and freezing of media supernatants for Il1α und PGE2 determination. Treatment with 3 μl substance in the morning and in the afternoon.
Day 3: Freezing of media supernatants for Il1α und PGE2 determination. Determination of cell metabolism in EZ4U test over a period of 2 hours. Fixation of slides and preparation of stained paraffin sections for histological evaluation.
as §4
The synthesis of the PGE2 inflammatory mediator was quantitatively determined by ELISA in the skin model after a first incubation for 24 hours and subsequent second incubation for 24 hours with test substances in the media supernatants of the equivalents. Samples 186-355 as well as different concentrations of SDS were used as test substances.

SMILES: CCCCCCCCCCCCOS(=O)(=O)[O-].[Na+] [SDS]
- Change (in percent) of cell metabolism after 48 hours of incubation, in relation to untreated control (100%) ([1]; AST-2000, SDS 0.73% (Ec50 from dose/effect curve)): 50%
- Ec50 (concentration that causes 50% cell damage; irritation threshold) ([1]; SDS reference, dose/effect curve): 0.73%
- Il1α secretion, maximum ([2]; 1% SDS, first 24 h incubation): more than 100 pg/ml per skin equivalent
- Il1α secretion after the second incubation ([2]; SDS, second 24 h incubation): remain overall elevated
- PGE2 synthesis ([3]; 1% SDS, after the first 24 hours): ≥ 4000 pg/ml per skin equivalent
- PGE2 synthesis after the second 24-hour incubation ([3]; SDS, second 24-hour incubation): practically unchanged
- PGE2 synthesis ([3]; up to an SDS concentration of 0.5%): almost unchanged low level
